“And” between values parts separate entries of the source, which are not always exact repeats. Equal entries are not always repeated.
The compounds below were run on Human immunodeficiency virus 1 (assay: Antiviral activity against HIV1 in MT4 cells assessed as reduction of virus-induced cytopathicity by XTT assay).
Type: functional

SMILES	Log10ED50	pED50
S=C(NCCc1ccccc1)Nc1ncc(Cl)s1	0.4314	
S=C(NCCc1ccccc1Cl)Nc1nccs1		0.3979
S=C(NCCc1ccccc1)Nc1nncs1	0.7243	
S=C(NCCc1ccccn1)Nc1nccs1	0.1139	
S=C(NCCc1cccc(Oc2ccccc2)c1)Nc1nccs1	0.4471	
N#Cc1csc(NC(=S)NCCc2ccccc2)n1		0.6989
COc1cccc(F)c1CCNC(=S)Nc1nccs1		0.5229
COc1ccc(Br)cc1CCNC(=S)Nc1nccs1		1.301
Fc1cccc(F)c1CCNC(=S)Nc1nccs1		1.6989
Fc1cccc(Cl)c1CCNC(=S)Nc1nccs1		1.301
Cn1cccc1CNC(=S)Nc1ccc(Cl)cn1		0.602
CN(C)c1ccc(F)c(CCNC(=S)Nc2ccc(Cl)cn2)c1F		1.3979
CCOc1ccc(F)c(CCNC(=S)Nc2ccc(Br)cn2)c1F		2.2218
COCc1ccc(F)c(CCNC(=S)Nc2ccc(Br)cn2)c1F		2.2218
CCOc1ccc(F)c(CCNC(=S)Nc2ccc(Cl)cn2)c1Cl		2.0969
CCOc1ccc(F)c(CCNC(=S)Nc2ccc(I)cn2)c1Cl		1.8239
COc1ccc(OC)c(CCNC(=S)Nc2ccc(Cl)cn2)c1F		2.6989
COc1ccc(F)c(CCNC(=S)Nc2ccc(Cl)cn2)c1OC		1.9208
CCOc1cccc(F)c1CCNC(=S)Nc1ccc(Br)cn1		1.886 and 1.6989
CN(C)C(=O)c1ccc(F)c(CCNC(=S)Nc2ccc(Br)cn2)c1F		1.0969
COc1ccc(OC)c(CCNC(=S)Nc2ccc(Cl)cn2)c1		1.3979
N#Cc1ccc(F)c(CCNC(=S)Nc2ccc(Br)cn2)c1F		1.886
Fc1ccccc1CCNC(=S)Nc1nccs1		1

SMILES	Log10ED50	pED50
Fc1cccc(CCNC(=S)Nc2nccs2)c1		0.6021
Fc1ccc(CCNC(=S)Nc2nccs2)cc1	0.5185	
N#Cc1csc(NC(=S)NCCc2c(F)cccc2F)n1		1.5229
Cn1cccc1CNC(=S)Nc1ccc(C#N)cn1		0.959
COc1ccccc1CCNC(=S)Nc1nccs1		0.3979
COc1ccc(CCNC(=S)Nc2nccs2)cc1	0.7404	
Cc1ccccc1CCNC(=S)Nc1nccs1		0.0227
CCOc1ccc(OCC)c(CCNC(=S)Nc2ccc(Br)cn2)c1		1.7447
O=[N+]([O-])c1ccccc1CCNC(=S)Nc1nccs1	0.0414	
CCOc1cccc(CCNC(=S)Nc2nccs2)c1		0.8239
CCCOc1cccc(CCNC(=S)Nc2nccs2)c1	0.3424	
CC(C)Oc1cccc(CCNC(=S)Nc2nccs2)c1		0.3979
Cc1csc(NC(=S)NCCc2ccccc2)n1		0.3979
CCc1csc(NC(=S)NCCc2ccccc2)n1		0.1549
CC(C)c1csc(NC(=S)NCCc2ccccc2)n1	0.1139	
CCCCc1csc(NC(=S)NCCc2ccccc2)n1	0.1139	
S=C(NCCc1ccccc1)Nc1ccccn1		0.6989
S=C(NCCc1ccccc1)Nc1ccc(Br)cn1		1.301
N#Cc1ccc(F)c(CC/N=C(\S)Nc2ccc(Cl)cn2)c1F		2.2218
COc1ccc(F)c(F)c1CC/N=C(\S)Nc1ccc(Br)cn1		2.1589
S=C(NCCc1ccccc1)Nc1nccs1	0.1139	
S=C(NCCc1cccnc1)Nc1nccs1	0.8062	
S=C(NCCc1ccco1)Nc1nccs1	0.716	

SMILES	Log10ED50	pED50
CCOC(=O)c1csc(NC(=S)NCCc2ccccc2)n1		0.301
Cc1ccc(NC(=S)NCCc2ccccc2)nc1		0.8239
Cc1ccc(NC(=S)NCCc2c(F)cccc2F)nc1		2
CCOc1c(Cl)cc(F)c(CCNC(=S)Nc2ccc(Br)cn2)c1Cl		1.886
COc1ccc(F)c(CCNC(=S)Nc2ccc(Br)cn2)c1F		1.8239
CCCc1csc(NC(=S)NCCc2ccccc2)n1	0.2041	
CCOc1ccc(OC)c(CCNC(=S)Nc2ccc(Cl)cn2)c1F		2.301
CCOc1cccc(F)c1CCNC(=S)Nc1ccc(C)cn1		0.6989
Cc1ccc(NC(=S)NCCc2ccccn2)nc1		0.5228
CCc1csc(NC(=S)NCCc2c(F)cccc2F)n1		1.0969
Oc1ccccc1CCNC(=S)Nc1nccs1	0.602	
COc1cccc(OC)c1CCNC(=S)Nc1nccs1		1.0457
CC(=O)NCc1ccc(F)c(CCNC(=S)Nc2ccc(Br)cn2)c1F		0.0457
COc1cccc(CCNC(=S)Nc2nccs2)c1		0.2218
COc1ccc(OC)c(CCNC(=S)Nc2nccs2)c1		0.3979
CCOc1ccc(F)c(F)c1CCNC(=S)Nc1ccc(Br)cn1		2.1549
FC(F)(F)c1csc(NC(=S)NCCc2ccccc2)n1		0.301
CCOc1ccc(F)c(CCNC(=S)Nc2ccc(C#N)cn2)c1Cl		2.5229
CCOc1cccc(F)c1CCNC(=S)Nc1nccs1		0.6989
CN(C)c1ccc(F)c(CCNC(=S)Nc2ccc(Br)cn2)c1F		1.7447 and 1.3979
Fc1cccc(F)c1CC/N=C(\S)Nc1ccc(Br)cn1		2
CCOc1ccc(F)c(CCNC(=S)Nc2ccc(Br)cn2)c1Cl [THIOUREA, N-(5-BROMO-2-PYRIDINYL)-N'-(2-(2-CHLORO-3-ETHOXY-6-FLUOROPHENYL)ETHYL)-]		2.1549
S=C(NCCc1ccccn1)Nc1ccc(Br)cn1 [TROVIRDINE]		1.6989
